Test results reported in patent US7371721B2, “Use of GLP-2 and related compounds for the treatment, prevention, diagnosis, and prognosis of bone-related disorders and calcium homeostasis related syndromes” (priority 2000, dated 2008).
Blank lines part the entries; values can stand above or below the molecule they belong to. No end group written: not given here.

Key:
[1] = system: ovariectomized induced bone loss; assay: Ovariectomized induced bone loss in aged rats, 6 week study; type: in vivo, female Sprague Dawley rats; conditions: 6 weeks, in comparison to the untreated controls
Experimental: The following is a protocol suitable to test whether GLP-2A at 250 μg/kg s.c. twice daily can inhibit ovariectomized induced bone loss in aged rats.
• Test articles: GLP-2 analogue (Gly2)GLP-2: […]OH. • Vehicle: 0.5% gelatin/PBS (degassed) Gelatin A: Cat. No. 325910, batch no. 273622 (Unikem, Copenhagen, Denmark). PBS: Dubecco's Phosphate buffered saline (BioWhitaker cat.no.BE17-512F) • Positive control: 17β-estradiol pellet 0.5 mg/60 days release implanted subcutaneous (SE-121 Innovative Research of America) A dose of 250 μg/kg is administered by subcutaneous injections twice daily (10-12 hours apart). The injection site will vary according to the injection scheme. The dose is calculated as follow: the weight ofthe rat in kg=the dose in ml; e.g. 0.301kg=0.30 ml Experimental System: The study is performed in 50 female Sprague Dawley rats in 4 groups each of 12 or 13 rats. Surgery: • The rats are anaesthetized with Hypnorm-Domicum (1 part Hypnorm+1 part Dormicum+2 part sterile dI water. The rats are given 0.15 ml/100 g body weight). Ovariectomy (OVX) or sham operations are performed via a midline incision in the back of the rats. […] The wet weight and length of the small intestine and the colon will be recorded. […] Bones are assessed by PQCT, trabecular strength and histomorphologic analysis.

[2] = system: fractures in postmenopausal osteoporosis; conditions: cited from earlier work
[3] = in vivo; cited from earlier work
clinical = conditions: both sexes, human, in vivo, sc
Experimental: (§1) In these Examples, hematology and serum chemistry including glucose were measured using an auto analyzer (Vitros). Serum […] was measured by IRMA (Coat-A-Count®, DPC, Los Angeles, Calif.). Serum C-telopeptide fragments of collagen type I degradation (S-CTX) were measured by ELISA, Serum CrossLaps™ assay (Osteometer BioTech A/S—Denmark). Serum osteocalcin was determined by ELISA, an assay which determines the N-terminal mid segment of the molecule. Serum insulin and c-peptide were both assessed by RIA (Coat-A-Count® for insulin and Double Antibody C-peptide for c-peptide both DPC, Los Angeles, Calif.). Total GIP was measured using the C-terminally directed antiserum R65, which reacts with the intact GIP (1-42) and the N-terminally truncated metabolite, GIP (3-42) (Krarup T, Holst J J 1984 The heterogeneity of gastric inhibitory polypeptide in porcine and human gastrointestinal mucosa evaluated with five different antisera. Regul Pept 9:35-46. ). GLP-2 was measured with a N-terminal specific antiserum code no. 92160, measuring only GLP-2 with an intact N-terminus. GLP-1 in plasma samples was measured using a RIA assay specific for the C-terminus of the GLP-1 molecule, using standards of synthetic GLP-1 (7-36) amide and antiserum no. […] GLP-1 is measured in Example 1 as a marker for the effect of the tested materials on GLP-2 levels. […]

S-CTX (bone resorption) = assay: Serum S-CTX (Serum CrossLaps ELISA) as marker of bone resorption in human subjects; type: in vivo
Experimental: as §1

GLP-1 = assay: Plasma GLP-1 level (RIA), in Examples 1 and 2 as marker for GLP-2; type: in vivo, human; conditions: after 2 hours, compared to the baseline of 100% at T0; oral 75 g fructose
Experimental: as §1

GIP = assay: Total GIP level (antiserum R65); type: in vivo, human; conditions: oral 75 g fructose
Experimental: as §1

Molecule: His-Gly-Asp-Gly-Ser-Phe-Ser-Asp-Glu-Met-Asn-Thr-Ile-Leu-Asp-Asn-Leu-Ala-Ala-Arg-Asp-Phe-Ile-Asn-Trp-Leu-Ile-Gln-Thr-Lys-Ile-Thr-Asp-OH (HGDGSFSDEMNTILDNLAARDFINWLIQTKITD-OH) [(Gly2)GLP-2]
protection against bone density loss following the OVX procedure [1]: protected against bone density loss

Molecule: CC[C@H](C)[C@H](NC(=O)[C@H](CCC(=O)O)NC(=O)[C@H](CO)NC(=O)[C@@H](NC(=O)[C@@H](N)CO)C(C)C)C(=O)N[C@@H](CCC(N)=O)C(=O)N[C@@H](CC(C)C)C(=O)N[C@@H](CCSC)C(=O)N[C@@H](Cc1cnc[nH]1)C(=O)N[C@@H](CC(N)=O)C(=O)N[C@@H](CC(C)C)C(=O)NCC(=O)N[C@@H](CCCCN)C(=O)N[C@@H](Cc1cnc[nH]1)C(=O)N[C@@H](CC(C)C)C(=O)N[C@@H](CC(N)=O)C(=O)N[C@@H](CO)C(=O)N[C@@H](CCSC)C(=O)N[C@@H](CCC(=O)O)C(=O)N[C@@H](CCCN=C(N)N)C(=O)N[C@H](C(=O)N[C@@H](CCC(=O)O)C(=O)N[C@@H](Cc1c[nH]c2ccccc12)C(=O)N[C@@H](CC(C)C)C(=O)N[C@@H](CCCN=C(N)N)C(=O)N[C@@H](CCCCN)C(=O)N[C@@H](CCCCN)C(=O)N[C@@H](CC(C)C)C(=O)N[C@@H](CCC(N)=O)C(=O)N[C@@H](CC(=O)O)C(=O)N[C@H](C(=O)N[C@@H](Cc1cnc[nH]1)C(=O)N[C@@H](CC(N)=O)C(=O)N[C@@H](Cc1ccccc1)C(=O)O)C(C)C)C(C)C [teriparatide]
effect on new non-vertebral fractures ([2]; by the end of the 21-month treatment period): −35%
decrease in occurrence of new vertebral fractures ([2]; subcutaneous daily dose 20 μg, Caucasian women (70 years of age)): 65%
reduction of moderate-to-severe fractures ([2]; subcutaneous daily dose 20 μg): 90%
reduction of multiple vertebral fractures ([2]; subcutaneous daily dose 20 μg): 77%

Molecule: C[C@]12CC[C@@H]3c4ccc(O)cc4CC[C@H]3[C@@H]1CC[C@@H]2O [17β-estradiol]
protection against bone density loss following the OVX procedure [1]: protected against bone density loss

Molecule: PTH: parathyroid hormone treatment (teriparatide and related compounds) discussed in the cited studies
hypercalcemia and related symptoms, share of treated individuals [3]: about 11%

Tmax (clinical): 1 h
Molecule: CC[C@H](C)[C@H](NC(=O)[C@H](Cc1ccccc1)NC(=O)[C@H](CC(=O)O)NC(=O)[C@H](CCCNC(=N)N)NC(=O)[C@H](C)NC(=O)[C@H](C)NC(=O)[C@H](CC(C)C)NC(=O)[C@H](CC(N)=O)NC(=O)[C@H](CC(=O)O)NC(=O)[C@H](CC(C)C)NC(=O)[C@@H](NC(=O)[C@@H](NC(=O)[C@H](CC(N)=O)NC(=O)[C@H](CCSC)NC(=O)[C@H](CCC(=O)O)NC(=O)[C@H](CC(=O)O)NC(=O)[C@H](CO)NC(=O)[C@H](Cc1ccccc1)NC(=O)[C@H](CO)NC(=O)CNC(=O)[C@H](CC(=O)O)NC(=O)[C@H](C)NC(=O)[C@@H](N)Cc1c[nH]cn1)[C@@H](C)O)[C@@H](C)CC)C(=O)N[C@@H](CC(N)=O)C(=O)N[C@@H](Cc1c[nH]c2ccccc12)C(=O)N[C@@H](CC(C)C)C(=O)N[C@H](C(=O)N[C@@H](CCC(N)=O)C(=O)N[C@H](C(=O)N[C@@H](CCCCN)C(=O)N[C@H](C(=O)N[C@H](C(=O)N[C@@H](CC(=O)O)C(=O)O)[C@@H](C)O)[C@@H](C)CC)[C@@H](C)O)[C@@H](C)CC [GLP-2]
reduction in S-CTX (S-CTX (bone resorption); after 3 hours, subcutaneous bolus injection of 400 μg, healthy women and men): 35%

Molecule: O=C(CO)[C@@H](O)[C@H](O)[C@H](O)CO [Oral fructose, fructose]
level of GLP-2 (measured as GLP-1) (GLP-1): 220%
level of GIP (GIP): almost maintained at baseline
reduction in S-CTX (S-CTX (bone resorption); after 2 hours, oral 75 g fructose in 300 ml water, fasted healthy women and men): 36%
